# Key:
# Format in all cases: physicochemical
# [1] = Fluorescence spectrometer analysis of cannabinoid monomers and adipate dimers
# [2] = Fluorescence viewed under long range UV light of 365 nm; settings: excitation at 365 nm
# Excerpt: In fact, the fluorescence is tied to molecular structure as characterized by ^1H NMR. Phytocannabinoids THC and CBN, are fluorescent, with excitation at 365 nanometer (nm). When fluorescent, the CBN phenolic OH becomes broad meaning that it is in some way connected to the fluorescence of the molecule.
# [3] = Absorption and fluorescence spectroscopy of CBN ether dimers (odd-even effect); settings: FIG. 9
# Excerpt: A change in number of carbon atoms in the linker with respect to the fluorescence was observed. Absorption and fluorescence spectroscopy was used to evaluate this change with the different dimers and the results are provided in FIGS. 9-10. FIG. 9 is a stacked graph of fluorescence spectroscopy for the odd and even series of dimers of Example 12 (x-axis wavelength in nanometers; y-axis intensity) and FIG. 10 is a stacked graph of the absorption spectroscopy for the same dimers (x-axis wavelength in nanometers; y-axis intensity). […] By changing the number of carbons in linkers, it was observed that when the number of carbon spacer is odd (3C and 5C) the fluorescence is higher compared to the even (2C, 4C and 6C), and a distinct hump at higher wavelengths is observed for odd numbered linkers. This change in the spectra with changing the number of carbons is termed here as the “odd-even effect”.
# [4] = Stability of CBN observed by NMR
# Excerpt: In some embodiments, charge transfer complexes will quench fluorescence, and FRET as it will enhance fluorescence and cause a shift in color. Such adaptations provide, for example, for observation and understanding of a drug as it travels through the body, moves through a cell wall, and binds to a receptor site.
# [5] = Fluorescence quenching by phenylenediamine isomers in acetone
# Experimental: Experiments were conducted to investigate the fluorescence quenching of cannabinol 2C ether dimer (Example 12) in acetone upon mixing with different isomers of phenylenediamine: ortho-phenylenediamine, meta-phenylenediamine, and para-phenylenediamine. […] This quenching phenomenon can be attributed to the electronic interactions and spatial arrangements of the amino groups in the different phenylenediamine isomers. Both ortho- and para-phenylenediamine have amino groups positioned such that they can effectively engage in electron-donating and resonance interactions with the excited state of cannabinol 2C ether dimer, facilitating non-radiative relaxation pathways such as photoinduced electron transfer (PET).
# [6] = Fluorescence of CBN-aniline
# Experimental: The synthesis of CBN-aniline was conducted via C—O bond using copper catalyst. The product was characterized by ^1H NMR. […] The CBN-aniline can be formed into dimers by linking through the aniline amine.
SMILES,"maximum fluorescence, Wavelength (nm) [1]",fluorescence (fluorescent or not) [2],also measured
CCCCCc1cc(O)c2c(c1)OC(C)(C)[C@@H]1CC=C(C)C[C@@H]21 [D-8 THC],380 nm,fluorescent properties,
"CCCCCc1cc2c(c(O)c1C(=O)O)[C@@H]1C=C(C)CC[C@H]1C(C)(C)O2 [D-9 THCA, Tetrahydrocannabinolic acid]",,fluorescent properties,
"C=C(C)[C@@H]1CCC(C)=C[C@H]1c1c(O)cc(CCCCC)cc1O [CBD, cannabidiol, reference compound]",,lacking in fluorescence,
CCCCCc1cc(OCCCOc2cc(CCCCC)cc3c2-c2cc(C)ccc2C(C)(C)O3)c2c(c1)OC(C)(C)c1ccc(C)cc1-2 [3C],,,"fluorescence, odd carbon spacer compared to the even (2C, 4C and 6C) [3]: higher"
CCCCCc1cc(OCCCCCOc2cc(CCCCC)cc3c2-c2cc(C)ccc2C(C)(C)O3)c2c(c1)OC(C)(C)c1ccc(C)cc1-2 [5C],,,"fluorescence, odd carbon spacer compared to the even (2C, 4C and 6C) [3]: higher"
"CCCCCc1cc(O)c2c(c1)OC(C)(C)c1ccc(C)cc1-2 [CBN, cannabinol]",385 nm,fluorescent,fluorescence (fluorescent or not) ([2]; listed as Cannabinol (CBN)): fluorescent properties; chemical stability [4]: remains CBN for long durations
"CCCCCc1cc(O)c2c(c1)OC(C)(C)[C@@H]1CCC(C)=C[C@@H]21 [THC, tetrahydrocannabinol, reference compound]",,fluorescent,
CCCCCc1cc(OC(=O)CCCCC(=O)Oc2cc(CCCCC)cc3c2C2CC(C)=CCC2C(C)(C)O3)c2c(c1)OC(C)(C)C1CC=C(C)CC21 (stereo not drawn) [d-8 THC adipate dimer],384 nm,fluorescent properties,
"CCCCCc1cc(OCCOc2cc(CCCCC)cc3c2-c2cc(C)ccc2C(C)(C)O3)c2c(c1)OC(C)(C)c1ccc(C)cc1-2 [cannabinol 2C ether dimer, Dicannabinolethyleneether dimer]",,,fluorescence quenching with meta-phenylenediamine [5]: minimal quenching; fluorescence quenching with ortho-phenylenediamine [5]: significantly quenched; fluorescence quenching with para-phenylenediamine [5]: significantly quenched
"CCCCCc1cc(O)c(C/C=C(\C)CCC=C(C)C)c(O)c1 [CBG, cannabigerol]",,lacking in fluorescence,
"CCCCCc1cc(OC(=O)CCCCC(=O)Oc2cc(CCCCC)cc3c2-c2cc(C)ccc2C(C)(C)O3)c2c(c1)OC(C)(C)c1ccc(C)cc1-2 [CBN adipate dimer, DiCannabinol adipate]",418 nm,fluorescent properties,fluorescence result compared among the cannabinoids tested ([1]; over THC adipate dimer): most promising results
CCCCCc1cc(Oc2ccc(N)cc2)c2c(c1)OC(C)(C)c1ccc(C)cc1-2 [CBN-aniline],,,fluorescent properties [6]: exhibited fluorescent properties

# Reference: patent US12480074B2, “Natural and synthetic cannabinoids as fluorescent tags; compositions, methods, and applications” (UNIVERSITY OF CONNECTICUT, priority 2023, dated 2025)
